The series concerns dogs (beagles). Kind of series: Cardiovascular effects in conscious telemetry-instrumented dogs, IV bolus. Type of series: in vivo, dog. Particulars: IV bolus injection.

In the case of `CS(=O)(=O)c1cccc(C[C@H](NC(=O)c2c(Cl)cc3c(c2Cl)CCN(C(=O)c2ccc4ccoc4c2)C3)C(=O)O)c1` [Compound 12], the “effects on electrocardiography or hemodynamic parameters” value is “No effects”.

The record behind these values is US20090258069A1, “Delivery of LFA-1 antagonists to the gastrointestinal system” (priority 2008, published 2009).
